Reference: ChEMBL document CHEMBL5331101, “Synthesis and evaluation of N-sulfonylpiperidine-3-carboxamide derivatives as capsid assembly modulators inhibiting HBV in vitro and in HBV-transgenic mice” (Eur J Med Chem, 2023)
Activity calls are given as the source filed them. No cut-off for these calls is given here.

Columns and labels:
Hepatitis B virus [1] = experiment: Antiviral activity against HBV infected in human HePAD38 cells assessed as reduction in intracellular core HBV DNA level at 20 uM incubated for 6 days by qPCR analysis relative to control; assay type: functional; parameters: scale not given: the % may be the effect or the level left; conditions: time 6 day
[2] = Cytotoxicity against human HepAD38 cells assessed as reduction in cell viability incubated for 6 days by CCK-8 assay; assay type: functional; conditions: HePAD38, 144 h, time 6 day
Hepatitis B virus [3] = experiment: Antiviral activity against HBV infected in human HePAD38 assessed as reduction on HBeAg level at 20 uM by ELISA analysis relative to control; assay type: functional; parameters: scale not given: the % may be the effect or the level left
Hepatitis B virus [4] = experiment: Antiviral activity against HBV infected in human HePAD38 assessed as reduction on HBsAg level at 20 uM by ELISA analysis relative to control; assay type: functional; parameters: scale not given: the % may be the effect or the level left
Hepatitis B virus [5] = experiment: Antiviral activity against HBV infected in human HePAD38 cells assessed as decay of viral capsid protein by agarose gel electrophoresis-based assay; assay type: functional, organism-based
Hepatitis B virus [6] = experiment: Antiviral activity against HBV infected in human HePAD38 cells assessed as reduction of capsid associated HBV DNA; assay type: functional, organism-based
Hepatitis B virus [7] = experiment: Antiviral activity against HBV infected in human HePAD38 cells assessed as decay of viral core protein by agarose gel electrophoresis-based assay; assay type: functional, organism-based
[8] = Selectivity index, ratio of CC50 for cytotoxicity against human HepAD38 cells to EC50 for antiviral activity against HBV infected in human HePAD38 cells; assay type: toxicity, cell-based; conditions: read-out: Ratio CC50/EC50
[9] = target: Core antigen (Hepatitis B virus) (UniProt Q03732); experiment: Modulation of capsid assembly in HBV infected in human HePAD38 cells assessed as inhibition of viral DNA replication at 5 uM incubated for 3 to 7 days by electron microscopic analysis; assay type: cell-based; conditions: filed as modulator, time 3-7 day
Sequence of Core antigen (Hepatitis B virus) (Q03732 as listed by the source): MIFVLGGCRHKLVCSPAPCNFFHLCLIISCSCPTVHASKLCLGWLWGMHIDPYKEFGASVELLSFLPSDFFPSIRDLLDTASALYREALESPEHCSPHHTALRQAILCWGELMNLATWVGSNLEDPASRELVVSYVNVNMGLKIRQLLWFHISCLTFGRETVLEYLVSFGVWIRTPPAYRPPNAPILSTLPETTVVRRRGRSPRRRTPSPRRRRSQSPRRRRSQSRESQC

Hepatitis B virus [10] = experiment: Antiviral activity against HBV infected in human HePAD38 assessed as reduction on HBsAg level at 2 uM by ELISA analysis relative to control; assay type: functional; parameters: scale not given: the % may be the effect or the level left
Hepatitis B virus [11] = experiment: Antiviral activity against HBV infected in human HePAD38 cells assessed as reduction in intracellular core HBV DNA level at 2 uM incubated for 6 days by qPCR analysis relative to control; assay type: functional; parameters: scale not given: the % may be the effect or the level left; conditions: time 6 day
Hepatitis B virus [12] = experiment: Antiviral activity against HBV infected in human HePAD38 cells assessed as reduction in capsid formation at 2 uM measured for 6 days by agarose gel electrophoresis-based assay; assay type: functional, organism-based; conditions: time 6.0 day
Hepatitis B virus [13] = experiment: Antiviral activity against HBV infected in human HePAD38 assessed as reduction on HBeAg level at 2 uM by ELISA analysis relative to control; assay type: functional; parameters: scale not given: the % may be the effect or the level left
Hepatitis B virus [14] = experiment: Antiviral activity against HBV infected in human HePAD38 assessed as reduction on HBsAg level at 5 uM by ELISA analysis relative to control; assay type: functional; parameters: scale not given: the % may be the effect or the level left
Hepatitis B virus [15] = experiment: Antiviral activity against HBV infected in human HepAD38 cells assessed as effect on capsid morphology at 20 uM incubated for 3 to 7 days by transmission electron microscopy; assay type: functional, organism-based; conditions: time 3-7 day
Hepatitis B virus [16] = experiment: Antiviral activity against HBV infected in human HePAD38 cells assessed as reduction in intracellular core HBV DNA level at 5 uM incubated for 6 days by qPCR analysis relative to control; assay type: functional; parameters: scale not given: the % may be the effect or the level left; conditions: time 6 day
Hepatitis B virus [17] = experiment: Antiviral activity against HBV infected in human HePAD38 assessed as reduction on HBeAg level at 5 uM by ELISA analysis relative to control; assay type: functional; parameters: scale not given: the % may be the effect or the level left
Hepatitis B virus [18] = experiment: Antiviral activity against HBV infected in human HePAD38 assessed as reduction on HBeAg level at 25 nM by ELISA analysis relative to control; assay type: functional; parameters: scale not given: the % may be the effect or the level left
Hepatitis B virus [19] = experiment: Antiviral activity against HBV infected in human HePAD38 cells assessed as reduction in intracellular core HBV DNA level at 25 nM incubated for 6 days by qPCR analysis relative to control; assay type: functional; parameters: scale not given: the % may be the effect or the level left; conditions: time 6 day
Hepatitis B virus [20] = experiment: Antiviral activity against wild type HBV infected in human HepG2 cells assessed as inhibition of viral replication; assay type: functional, organism-based
Hepatitis B virus [21] = experiment: Antiviral activity against HBV infected in human HePAD38 assessed as reduction on HBsAg level at 25 nM by ELISA analysis relative to control; assay type: functional; parameters: scale not given: the % may be the effect or the level left
Hepatitis B virus [22] = experiment: Antiviral activity against ETV-resistant HBV infected in human HepG2 cells assessed as inhibition of viral replication; assay type: functional, organism-based

SMILES	Activity (Hepatitis B virus [1]) [%]	CC50 [2] [µM]	Activity (Hepatitis B virus [3]) [%]	Activity (Hepatitis B virus [4]) [%]	Activity (Hepatitis B virus [5])	EC50 (Hepatitis B virus [6]) [nM]	Activity (Hepatitis B virus [7])	selectivity ratio [8]	other results
CCOC(=O)c1c(S(=O)(=O)N2CCCC(C(=O)Nc3ccc(F)c(F)c3)C2)c(C)n(C)c1C (stereo not drawn)	11.5	> 100	27.2	96	Active	520	Active	> 192	
CCOC(=O)c1c(S(=O)(=O)N2CCC[C@H](C(=O)Nc3ccc(F)c(C)c3)C2)c(C)n(C2CC2)c1C	7.7	> 100	41.6	91.6	inactive	5870	inactive	> 17	
CCOC(=O)c1c(S(=O)(=O)N2CCCC(C(=O)Nc3ccc(F)c(Cl)c3)C2)c(C)n(C)c1C (stereo not drawn)	11.8		27.1	94.4	Active		Active		
COC(=O)c1c(S(=O)(=O)N2CCC[C@H](C(=O)Nc3ccc(F)c(C#N)c3)C2)c(C)n(C)c1C	29.7		61.9	92.4					
Cc1c(C#N)c(S(=O)(=O)N2CCC[C@H](C(=O)Nc3ccc(F)c(Cl)c3)C2)c(C)n1C	11.1	> 100	36	99.8	inactive	4410	inactive	> 22.7	
COC(=O)c1c(C)[nH]c(C)c1S(=O)(=O)N1CCC[C@H](C(=O)Nc2ccc(F)c(C)c2)C1	3.7		73.2	106.1					
COC(=O)C1=C(C)NC(c2ncc(F)cc2F)=N[C@H]1c1ccc(F)cc1Cl		> 20			Active	50	Active		Activity [9]: Active; Activity (Hepatitis B virus [10]): 88.5%; Activity (Hepatitis B virus [11]): 4.9%; Activity (Hepatitis B virus [12]): Active; Activity (Hepatitis B virus [13]): 31.8%
COC(=O)c1c(S(=O)(=O)N2CCO[C@H](C(=O)Nc3ccc(F)c(C)c3)C2)c(C)n(C)c1C	39		59	88.2					
CCOC(=O)c1c(S(=O)(=O)N2CCCC(C(=O)Nc3ccc(F)c(Cl)c3)C2)c(C)n(CC)c1C (stereo not drawn)	44.2		66	98.2					
CCOC(=O)c1c(S(=O)(=O)N2CCCC(C(=O)Nc3ccc(F)cc3)C2)c(C)n(C)c1C (stereo not drawn)	53.4		62.4	86.6					
COC(=O)c1c(S(=O)(=O)N2CCC[C@@H](C(=O)Nc3ccc(F)c(C)c3)C2)c(C)n(C)c1C	34.9		62.2	100.5					
COC(=O)c1c(S(=O)(=O)N2CCC[C@H](C(=O)Nc3ccc(F)c(C)c3)C2)c(C)n(C)c1C	29.8		54.6	97.3					
COC(=O)c1c(S(=O)(=O)N2CCC[C@H](C(=O)Nc3ccc(F)c(Cl)c3)C2)c(C)n(C)c1C	39.7		67.4	94					
COC(=O)c1c(S(=O)(=O)N2CCC[C@H](C(=O)Nc3ccc(F)c(C)c3)C2)c(C)n(CC(C)=O)c1C	38.2		49.4	92.8					
COC(=O)c1c(S(=O)(=O)N2CCC[C@H](C(=O)Nc3ccc(F)c(C)c3)C2)c(C)n(C(F)F)c1C	9.6	59.2	37.9	92.8	inactive	330	inactive	179	
CCOC(=O)c1c(S(=O)(=O)N2CCCC(C(=O)Nc3ccc(F)cc3F)C2)c(C)n(C)c1C (stereo not drawn)	44.9		54	93.5					
Cc1cc(NC(=O)c2cccc(S(=O)(=O)N[C@H]3CCOC3)c2)ccc1F		> 100			inactive	270	inactive	> 370	Activity (Hepatitis B virus [14]): 97%; Activity (Hepatitis B virus [15]): inactive; Activity (Hepatitis B virus [16]): 5.8%; Activity (Hepatitis B virus [17]): 36.1%
C=C1[C@H](CO)[C@@H](O)C[C@@H]1n1cnc2c(=O)[nH]c(N)nc21 [ENTECAVIR ANHYDROUS]		> 0.5				3		> 155	Activity (Hepatitis B virus [18]): 93.4%; Activity (Hepatitis B virus [19]): 3.1%; EC50 (Hepatitis B virus [20]): 270 nM; Activity (Hepatitis B virus [21]): 93.7%; EC50 (Hepatitis B virus [22]): 340 nM
